This note sets out measurements from patent EP4793274A1, “SALT AND CRYSTAL FORM OF KIF18A INHIBITOR COMPOUND, PREPARATION METHOD THEREFOR AND USE THEREOF” (Hubei Bio-Pharmaceutical Industrial Technological Institute …, priority 2023, dated 2025).

As a reminder, the IC50 is the concentration that inhibits the measured activity by half. As usually defined, the pKa is the negative logarithm of the acid dissociation constant.

Data set [1] has as its system NIH:OVCAR-3 cells. Description: Inhibition of OVCAR3 tumor cell proliferation (CellTiter-Glo). The format is cell-based. The conditions noted are these: Homo sapiens, OVCAR-3, 72 h, 3 days drug treatment. As to the method: NIH:OVCAR-3 cells (ATCC, Cat No. HTB-161, purchased from Co-Bier) were seeded into a T75 culture flask and cultured in an RPMI 1640 medium containing 20% FBS for 3 days in preparation for subsequent culturing and seeding into a 96-well plate for the cell proliferation assay. The OVCAR3 cells were seeded at a density of 3000 cells/100 µL/well into the 96-well cell plate, and then the plate was incubated in an incubator (37 °C, 5% CO2) for 18 h. On the second day, drug treatment was started. Serially diluted test compound solutions (each drug starting at a concentration of 10 µM, diluted in DMSO, with a dilution ratio of 1:3, and nine gradient points for each drug) or DMSO (negative control) was added to the medium in the plate at 100 µL/well, and a blank group was set up with only medium, but no seeded cell strains. After the drug addition, the plate was incubated in the incubator for another 3 days (37 °C, 5% CO2). On the fourth day, plate detection was performed. To each well, 100 µL of CellTiter-Glo reagent (Promega G9243) was added. The plate was shaken for 5 min and then left to stand at room temperature for 5 min. The chemical luminescence signal value of each well was determined using a microplate reader (PerkinElmer EnVision®2104). […] Then, the IC50 value of the test compound was calculated using the GraphPad Prism 8 software.
For orientation: In ATP-based viability assays light output follows the ATP content of the culture.

The target of data set [2] is T1, recombinant protein KIF18A (kinesin domain: aa 1-467) (Homo sapiens, UniProt Q8NI77).
T1 construct: KIF18A (kinesin domain: aa 1-467); made in house; host or cells: Bac-to-Bac baculovirus expression system (Invitrogen)
T1 sequence (Q8NI77 1-467): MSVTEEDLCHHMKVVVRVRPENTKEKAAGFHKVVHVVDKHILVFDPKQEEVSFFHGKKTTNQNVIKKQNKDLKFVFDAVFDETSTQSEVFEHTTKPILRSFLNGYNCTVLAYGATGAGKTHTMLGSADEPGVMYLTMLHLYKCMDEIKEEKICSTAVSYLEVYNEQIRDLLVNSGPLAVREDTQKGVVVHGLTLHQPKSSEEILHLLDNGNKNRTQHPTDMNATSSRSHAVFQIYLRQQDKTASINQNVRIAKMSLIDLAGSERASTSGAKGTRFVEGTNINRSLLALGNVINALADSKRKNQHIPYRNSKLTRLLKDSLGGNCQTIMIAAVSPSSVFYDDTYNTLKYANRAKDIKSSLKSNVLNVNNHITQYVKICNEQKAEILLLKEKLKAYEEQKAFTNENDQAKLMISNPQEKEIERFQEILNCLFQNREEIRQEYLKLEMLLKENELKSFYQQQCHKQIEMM
Description: Inhibition of KIF18A enzymatic activity (ADP-Glo kinase assay kit). The format is biochemical. The conditions noted are these: KIF18A 80 nM, ATP 80 µM, 3 h at room temperature, luminescence. The source says: The recombinant protein KIF18A (kinesin domain: aa 1-467) used in this assay was expressed by the Bac-to-Bac baculovirus expression system from Invitrogen, and the resulting protein was purified for use in this assay (Seki, M. et al. 2003 Nucleic Acids Res.). Quantitative detection of KIF18A enzymatic activity was completed using an ADP-Glo™ kinase assay kit (Promega Inc). Related procedures strictly followed the product instructions, which are briefly described as follows: The reaction system consisted of a test compound, the recombinant protein KIF18A (aa 1-467), ATP (Promega Inc), and an assay buffer. The test compound was prepared into a 0.5 mM stock solution using DMSO (Sigma Inc) and then serially diluted in DMSO. The assay buffer consisted of an aqueous solution of 15 mM Tris, 10 mM MgCl2 (Sigma Inc), 0.01% Pluronic F-68 (Life Technologies Inc), 1 µM paclitaxel (Cytoskeleton Inc), 30 µg/mL porcine tubulin (Cytoskeleton Inc), and 2% DMSO. […] After all reactions were completed, the luminescence values of the wells were read on a microplate reader (Molecular Device_SpectraMax Id5), and the inhibition ratios were calculated. […] Then, based on the inhibition rates at different compound concentrations, the IC50 value of the test compound was calculated using the GraphPad Prism 8 software.
For orientation: ADP-Glo turns the ADP formed in a reaction into a luminescent signal.

Data set [3] in a line: pKa of the compound. The conditions noted are these: basic group. It is filed as physicochemical.

Turning to `Cc1cc(-c2cnn(-c3ccc(NS(=O)(=O)CCO)cc3N3CCC4(CC3)CC4)c2)nc(N2CCC(F)(F)CC2)n1` [compound of formula I, N-(4-(4-(2-(4,4-difluoropiperidin-1-yl)-6-methylpyrimidin-4-yl)-1H-pyrazol-1-yl)-3-(6-azaspiro[2.5]octan-6-yl)phenyl)-2-hydroxyethane-1-sulfonamide], the IC50 was 96 nM in data set [1] and 11 nM in data set [2]. Also, in data set [3], the pKa came out at 4.5.
